Patent US20130158035A1, “[…] COMPOUNDS” (Brigham Young University, priority 2010, published 2013)

System: MDCK cells
Assay: HGF-induced epithelial-mesenchymal transition / migration of MDCK cells on transwell filters (crystal violet densitometry)
Format: cell-based
Conditions: then HGF, percentage like untreated controls (unstimulated cells = maximal effect, HGF only = nil); for Assay Value: 10 μM compound, 24 hours; for inhibition at 10 µM: Canis lupus familiaris, MDCK, 24 h
Protocol: MDCK cells were seeded at confluency into the wells of a transwell filter in DMEM with 10% fetal bovine serum. Cells were cultured for 24 hours. Test compounds, dissolved in DMSO, were added to each test well to a 10 μM final concentration, and then hepatocyte growth factor (HGF) was then added. The MDCK cells were cultured for 24 hours. Concurrently, controls treated with and without HGF and with no test compounds were also prepared.
After post-HGF addition culturing, transwell filters were prepared by repeated washing using ice cold PBS. The cells were then fixed with paraformaldehyde (3.7%) on ice for 15 minutes to the filters. After fixation, the transwell filters were washed repeatedly with PBS followed by staining with crystal violet for 15 minutes. The transwell filters were washed again with distilled water.
The upper surface of the transwell filters were swabbed using a cotton-tipped probe. The filters were photographed using a gel documentation system. Densitometry measurements were made on the test samples and compared with control samples.

COc1cc2c(cc1OC)C(c1cc(C)ccc1C)CC(=O)N2 (stereo not shown) [Compound 57]
Assay Value (Table 2): <5%

Cc1ccc(/C=N/c2ccccc2C(N)=O)s1 [Compound A-10]
inhibition at 10 µM (Table 3, 10 μM compound): 91.8%

O=C(Nc1ncc(Br)cc1Br)c1cccc([N+](=O)[O-])c1 [Compound B-12]
inhibition at 10 µM (Table 4, 10 μM compound): 42.4%

COc1cccc(C2CC(=O)Nc3cc4c(cc32)CCC4)c1OC (stereo not shown) [Compound 26]
Assay Value (Table 1): 90.4%

CCCCOc1ccc(C(=O)Nc2ccc(N3CCCC3=O)cc2)cc1 [Compound B-30]
inhibition at 10 µM (Table 5, 10 μM compound): 81.1%

CCOC(=O)c1[nH]c2c(c1C)C(=O)CC(c1ccccc1)C2 (stereo not shown) [Compound C-8]
inhibition at 10 µM (Table 6, 10 μM compound): 30.6%

COc1c(O)cccc1C1CC(=O)Nc2cc3c(cc21)OCO3 (stereo not shown) [Compound 90]
Assay Value (Table 2): <5%

C#CCOc1c(Br)cc(CNc2ccc(Cl)c(Cl)c2)cc1OC [Compound A-24]
Assay Value (Table 3): 16.3%

CC(C)c1ccc(C2CC(=O)Nc3cc4c(cc32)OCO4)cc1 (stereo not shown) [Compound 71]
Assay Value (Table 2): <5%

Cc1c(C(=O)OC2CCCC2C)[nH]c2c1C(=O)CC(c1cccs1)C2 (stereo not shown) [Compound C-12]
Assay Value (Table 6): <5%

O=C1CC(c2ccccc2Cl)c2cc3c(cc2N1)OCCO3 (stereo not shown) [Compound 37]
Assay Value (Table 2): <5%

COc1cc(CNc2ccc(N3CCOCC3)cc2)cc(Br)c1OC [Compound A-23]
inhibition at 10 µM (Table 3, 10 μM compound): 31.9%

O=C1CC(c2cccc(Br)c2)c2cc3c(cc2N1)CCC3 (stereo not shown) [Compound 95]
Assay Value (Table 2): <5%

Cc1c(C(=O)OCc2ccccc2)[nH]c2c1C(=O)CC(c1cccs1)C2 (stereo not shown) [Compound C-5]
inhibition at 10 µM (Table 6, 10 μM compound): 41.6%

Cc1cccc(NS(=O)(=O)c2cccc([N+](=O)[O-])c2)c1 [Compound B-36]
inhibition at 10 µM (Table 5, 10 μM compound): 79.2%

Cc1ccccc1C1CC(=O)Nc2cc3c(cc21)OCCO3 (stereo not shown) [Compound 45]
Assay Value (Table 2): <5%

COc1cc2c(cc1OC)C(c1ccccc1OCc1ccccc1)CC(=O)N2 (stereo not shown) [Compound 42]
Assay Value (Table 2): <5%

CCOc1ccc(Br)cc1C1CC(=O)Nc2cc3c(cc21)OCCO3 (stereo not shown) [Compound 9]
Assay Value (Table 1): 64.9%

O=C(Nc1ccccn1)c1cccc([N+](=O)[O-])c1 [Compound B-8]
inhibition at 10 µM (Table 4, 10 μM compound): 45.3%

CC(C)Oc1ccc(C2CC(=O)Nc3cc4c(cc32)OCCO4)cc1 (stereo not shown) [Compound 73]
Assay Value (Table 2): <5%

O=C1CC(c2ccc3c(c2)OCO3)c2cc3c(cc2N1)OCO3 (stereo not shown) [Compound 88]
Assay Value (Table 2): <5%

O=C1CC(c2cccc3ccccc23)c2cc3c(cc2N1)OCCO3 (stereo not shown) [Compound 7]
Assay Value (Table 1): 17.1%

CCOC(=O)c1[nH]c2c(c1C)C(=O)CC(c1cccc(OC)c1)C2 (stereo not shown) [Compound C-1]
inhibition at 10 µM (Table 6, 10 μM compound): 96%

CCOc1c(Br)cc(C2CC(=O)Nc3cc4c(cc32)OCCO4)cc1OC (stereo not shown) [Compound 8]
Assay Value (Table 1): 48.8%

NC(=O)c1cccc(NC(=O)c2ccc(-c3ccccc3)cc2)c1 [Compound B-20]
inhibition at 10 µM (Table 5, 10 μM compound): 20.6%

Cc1c(C(=O)OC(C)C)[nH]c2c1C(=O)CC(c1cccs1)C2 (stereo not shown) [Compound C-7]
inhibition at 10 µM (Table 6, 10 μM compound): 35.9%

COc1cc(CNc2cc(C(=O)O)ccc2C)cc(Br)c1OC [Compound A-22]
inhibition at 10 µM (Table 3, 10 μM compound): 33.1%

Cc1c(C(=O)OC2CCCC2)[nH]c2c1C(=O)CC(c1cccs1)C2 (stereo not shown) [Compound C-10]
inhibition at 10 µM (Table 6, 10 μM compound): 8.8%

COc1cc2c(cc1OC)C(c1cc(F)ccc1F)CC(=O)N2 (stereo not shown) [Compound 72]
Assay Value (Table 2): <5%

COc1cc2c(cc1OC)C(c1cc(Br)c(OC)c(OC)c1)CC(=O)N2 (stereo not shown) [Compound 52]
Assay Value (Table 2): <5%

O=C1CC(c2cc(Br)ccc2F)c2cc3c(cc2N1)CCC3 (stereo not shown) [Compound 4]
Assay Value (Table 1): 36.1%

Cc1nc(NC(=O)c2cccc([N+](=O)[O-])c2)ccc1I [Compound B-3]
inhibition at 10 µM (Table 4, 10 μM compound): 95.9%

Cc1cccc(NC(=O)c2ccc(-c3ccccc3)cc2)c1 [Compound B-17]
inhibition at 10 µM (Table 5, 10 μM compound): 30.2%

COc1ccc(C2CC(=O)Nc3cc4c(cc32)OCCO4)cc1OC (stereo not shown) [Compound 15]
Assay Value (Table 1): 12.9%

CCN1CCN(c2ccc(NC(=O)c3cc(OC)c(OC)c(OC)c3)cc2Cl)CC1 [Compound B-26]
inhibition at 10 µM (Table 5, 10 μM compound): > 5%

COc1cccc(C2CC(=O)Nc3cc4c(cc32)CCC4)c1 (stereo not shown) [Compound 99]
Assay Value (Table 2): <5%

CCOc1ccc(C(=O)Nc2ccc(I)cn2)cc1[N+](=O)[O-] [Compound B-10]
inhibition at 10 µM (Table 4, 10 μM compound): 69.9%

NC(=O)c1ccccc1/N=C/c1ccccc1Cl [Compound A-2]
inhibition at 10 µM (Table 3, 10 μM compound): 75.7%

COC(=O)c1[nH]c2c(c1C)C(=O)CC(c1cccs1)C2 (stereo not shown) [Compound C-3]
inhibition at 10 µM (Table 6, 10 μM compound): 84.1%

COc1cc(C2CC(=O)Nc3cc4c(cc32)OCCO4)cc(OC)c1O (stereo not shown) [Compound 32]
Assay Value (Table 1): 88.2%

COc1cc(CNc2ccc(C)c(Cl)c2)cc(I)c1OC [Compound A-20]
Assay Value (Table 3): 81.9%

NC(=O)c1ccccc1/N=C/c1cccc(O)c1 [Compound A-8]
inhibition at 10 µM (Table 3, 10 μM compound): 19.7%

O=C1CC(c2ccccc2C(F)(F)F)c2cc3c(cc2N1)OCO3 (stereo not shown) [Compound 87]
Assay Value (Table 2): <5%

O=C1CC(c2cccc(F)c2)c2cc3c(cc2N1)OCCO3 (stereo not shown) [Compound 44]
Assay Value (Table 2): <5%

COc1cc(C(=O)Nc2ccc(N3CCN(C)CC3)cc2)cc(OC)c1OC [Compound B-28]
inhibition at 10 µM (Table 5, 10 μM compound): 13.7%

Cc1ccc(C2CC(=O)Nc3cc4c(cc32)OCO4)cc1Br (stereo not shown) [Compound 89]
Assay Value (Table 2): <5%

COc1cc2c(c(OC)c1)C(c1cc(OC)ccc1OC)CC(=O)N2 (stereo not shown) [Compound 22]
Assay Value (Table 1): 8.8%

COc1cc(C(=O)Nc2ccc(N3CCCC3=O)cc2)cc(OC)c1OC [Compound B-24]
inhibition at 10 µM (Table 5, 10 μM compound): 93.2%

CCOc1ccc(C2CC(=O)Nc3cc4c(cc32)OCCO4)cc1OC (stereo not shown) [Compound 63]
Assay Value (Table 2): <5%

Cc1c(C(=O)OCC2CCCO2)[nH]c2c1C(=O)CC(c1cccs1)C2 (stereo not shown) [Compound C-17]
inhibition at 10 µM (Table 6, 10 μM compound): 75.7%

Cc1cc(NC(=O)c2ccc(C)c([N+](=O)[O-])c2)c(C)cc1I [Compound B-33]
inhibition at 10 µM (Table 5, 10 μM compound): 56.9%

CCOC(=O)c1[nH]c2c(c1C)C(=O)CC(c1ccc(OC)cc1)C2 (stereo not shown) [Compound C-13]
inhibition at 10 µM (Table 6, 10 μM compound): < 5%

O=C(Nc1cccc([N+](=O)[O-])c1)c1ccc(-c2ccccc2)cc1 [Compound B-15]
inhibition at 10 µM (Table 5, 10 μM compound): 31.6%

NC(=O)c1ccccc1/N=C/c1ccco1 [Compound A-11]
inhibition at 10 µM (Table 3, 10 μM compound): 27.9%

COc1cc2c(cc1OC)C(c1cccc(Br)c1)CC(=O)N2 (stereo not shown) [Compound 59]
Assay Value (Table 2): <5%

CCCCOc1ccccc1C1CC(=O)Nc2cc(OC)c(OC)cc21 (stereo not shown) [Compound 47]
Assay Value (Table 2): <5%

COc1cc(CNc2ccc(N3CCOCC3)c(C(=O)O)c2)cc(Br)c1OC [Compound A-25]
inhibition at 10 µM (Table 3, 10 μM compound): < 5%

O=C1CC(c2cc(Br)ccc2F)c2cc3c(cc2N1)OCCO3 (stereo not shown) [Compound 11]
Assay Value (Table 1): 27.9%

CCOc1c(Br)cc(C2CC(=O)Nc3cc(OC)c(OC)cc32)cc1OC (stereo not shown) [Compound 39]
Assay Value (Table 2): <5%

NC(=O)c1ccccc1/N=C/c1ccc2ccccc2c1 [Compound A-16]
Assay Value (Table 3): <5%

COc1cc(C2CC(=O)Nc3cc4c(cc32)OCCO4)cc(OC)c1OC (stereo not shown) [Compound 3]
Assay Value (Table 1): 92.4%

CCOc1ccccc1C1CC(=O)Nc2cc(C)c(C)cc21 (stereo not shown) [Compound 33]
Assay Value (Table 2): <5%

Cc1c(C(=O)OCc2ccccc2)[nH]c2c1C(=O)CC(c1ccco1)C2 (stereo not shown) [Compound C-15]
inhibition at 10 µM (Table 6, 10 μM compound): < 5%

COc1cc2c(cc1OC)C(c1cc(Br)ccc1OC)CC(=O)N2 (stereo not shown) [Compound 66]
Assay Value (Table 2): <5%

Cc1nc(NC(=O)c2ccc(N3CCCC3)c([N+](=O)[O-])c2)ccc1I [Compound B-5]
inhibition at 10 µM (Table 4, 10 μM compound): 44%

CC(=O)c1cccc(NC(=O)c2ccc(-c3ccccc3)cc2)c1 [Compound B-16]
inhibition at 10 µM (Table 5, 10 μM compound): > 5%

COc1cccc(C2CC(=O)Nc3cc4c(cc32)OCCO4)c1 (stereo not shown) [Compound 17]
Assay Value (Table 1): 10.7%

COc1cc(CNc2ccc(C)c(Cl)c2)cc(Cl)c1OC [Compound A-21]
Assay Value (Table 3): 57.5%

O=C1CC(c2ccccc2OCc2ccccc2)c2cc3c(cc2N1)OCCO3 (stereo not shown) [Compound 56]
Assay Value (Table 2): <5%

COc1cc(C2CC(=O)Nc3cc4c(cc32)OCCO4)cc(Br)c1OC (stereo not shown) [Compound 6]
Assay Value (Table 1): 52.2%
